Test results from patent publication US6391871B1 (priority 1996, dated 2002).
“Also recorded” adds a separate entry of the source. Where two headings read alike, the source gives them in different places.

Tests used:
[1] = system: NMDA receptors; format: cell-based, chick
Protocol: Potency rating=minimum concentration required to provide total protection against neurotoxic effects of NMDA (40 μM) in chick embryo retinal tissue tests
These experiments were performed using segments of chick embryo retina. This is a widely used model for studying the production and prevention of excitotoxic phenomena, since it is a simple and inexpensive preparation, and since chick tissue provides a better model of adult mammalian neurons than embryonic or juvenile mammalian tissue. All of the glutamate receptors that mediate excitotoxic phenomena are present in chick retinas, and are sensitive to excitotoxic stimulation. By contrast, in embryonic or juvenile mammalian tissue, various glutamate receptors are not fully matured and are not responsive in the same ways that occur in adult mammalian tissue.
In these tests, NMDA is introduced into the incubation medium in a concentration ([…]) sufficient to produce a fully developed excitotoxic lesion within 30 min, displaying acute degeneration and necrosis of the majority of neurons in the inner layers of the retina. The control retinas are incubated with NMDA alone, and experimental retinas are incubated with NMDA plus a test compound that is being evaluated for NMDA antagonist properties. […] All agents that prevent NMDA from hyperactivating NMDA receptors and thereby inducing an excitotoxic neurodegenerative reaction in the chick embryo retina are considered appropriate candidate drugs for preventing NMDA receptor hyperactivation and NMDA receptor burnout in the presymptomatic stages of Alzheimer's disease.
The concentration of the test compound required to prevent NMDA from inducing neuronal degeneration in the chick retina tissue is considered a measure of its expected potency for preventing NMDA receptor hyperactivation and NMDA receptor burnout in the presymptomatic stages of Alzheimer's disease.

[2] = system: vacuolated PC/RS neurons; test: Safener assay: prevention of MK-801-induced vacuole formation in PC/RS neurons; conditions: for ED50: 4 h; for blocking of MK-801 neurotoxicity / vacuole formation: tested against MK-801
Protocol: For each test agent, at least 5 dosages of the candidate safener agent were tested, and at least 4 rats were used in each dosage group.
The rats were sacrificed four hours after treatment, for histopathological evaluation. The number of vacuolated PC/RS neurons were counted on each side of the brain, at a rostrocaudal level immediately posterior to where the corpus callosum ceases decussating across the midline (approximately 5.6 mm caudal to bregma).
The result was subtracted from one and multiplied by 100, to calculate a percentage.
The confidence limits, in the right column, were the safener dosages that reduced vacuoles by 25% and 75%.

[3] = system: pyramidal neurons in layers III and IV of the posterior cingulate and retrosplenial (PC/RS) cortices; conditions: rat, in vivo; for neurotoxic (vacuole) reaction in PC/RS cortex, drug by itself: ip
[4] = system: pyramidal neurons in layers III and IV of the posterior cingulate and retrosplenial (PC/RS) cortices; test: In vivo assay of toxic side effects of NMDA antagonists (vacuole formation in PC/RS cortex)
[5] = system: sigma receptors; conditions: cited from earlier work
[6] = system: NMDA receptors in the hypothalamus; test: NMDA receptor hyperactivation in the hypothalamic-pituitary neuroendocrine regulatory system; conditions: for damage to the reproductive regulatory (NMDA receptor) system: high dose, rats
Protocol: The explanation for this is that normally, neurons in the hypothalamus that have NMDA receptors on their surface are activated by the excitatory transmitter, glutamate, which causes them to send a message to the pituitary resulting in pituitary release of LH. When NMDA is administered, it enters the hypothalamus and mimics glutamate by acting at the same NMDA receptors that glutamate would activate. This triggers the same sequence of events that glutamate would normally trigger. The action of glutamate at these NMDA receptors represents a physiological mechanism by which glutamate normally regulates the amount of reproductive hormones (e.g., LH) that circulate in the blood. For a detailed review describing this neuroendocrine regulatory system, see Olney and Price 1978.
These excitotoxic molecules (NMDA or glutamate) enter the hypothalamus and hyperactivate NMDA receptors so vigorously and continuously that it destroys the NMDA receptor system, and leaves it permanently unresponsive to subsequent stimulation, either by exogenously administered NMDA, or by endogenous glutamate.
Affected animals develop a neuroendocrine deficiency syndrome, which leads to symptoms such as obesity, sterility, and ongoing degeneration of their reproductive organs.

[7] = system: cerebrocortical neurons; conditions: Olney et al 1989, Corso et al 1994; cited from earlier work
[8] = system: neurons in neocortical and limbic brain regions; test: Histopathology of rat brain after PCP/pilocarpine treatment; format: in vivo; conditions: even at very high dosages
Protocol: Adult female rats were injected subcutaneously with an NMDA antagonist drug, phencyclidine (PCP), at 50 milligrams of drug per kilogram of body weight (mg/kg sc), accompanied by a small dose of a muscarinic agonist, pilocarpine (10 mg/kg sc). At various times (4, 16, 24, 48, 72 and 96 hours) after treatment, the rats were anesthetized and perfused with fixative to allow their brains to be prepared for histological evaluation.
Degenerating neurons in various brain regions were also examined by electron microscopy, to obtain evidence for loss of synaptic complexes, and a computer-assisted cell plotting system was used to plot the location and count the frequency with which degenerating neurons were found in each brain region.
Massive loss of neurons throughout many neocortical and limbic brain regions is a hallmark characteristic of Alzheimer's disease. To establish that the NR/hypo mechanism results not only in cell injury but in cell death, the Applicants systematically examined the brains of rats 4 days following PCP/pilocarpine treatment. Sections prepared at 1 millimeter intervals from one side of the brain were stained, using hematoxylin and eosin; sections prepared at 1 millimeter intervals from the other side of the brain were stained using a silver impregnation stain. […]

[9] = NMDA 40 μM, chick embryo retinal tissue
[10] = dose reducing mean number of vacuolated PC/RS neurons to 50% of MK-801 (0.5 mg/kg sc) controls, rats

O=C(O)c1cc(O)c2ccc(Cl)cc2n1 [7-CL-Kynurenic acid, 7-chloro-kynurenic acid]
POTENCY RATING = minimum concentration required to provide total protection against neurotoxic effects of NMDA [1]: 50 µM

CN1[C@@H]2CC[C@H]1C[C@@H](OC(c1ccccc1)c1ccccc1)C2 [Benztropine]
ED50 ([2]; Rattus norvegicus, Neuron, sc): 1.29 mg/kg

O=C(O)[C@@H]1C[C@H](CP(=O)(O)O)CCN1 [CGS 19755]
POTENCY RATING = minimum concentration required to provide total protection against neurotoxic effects of NMDA [1, 9]: 5 µM

N#Cc1cc2[nH]c(=O)c(=O)[nH]c2cc1[N+](=O)[O-] [CNQX]
POTENCY RATING = minimum concentration required to provide total protection against neurotoxic effects of NMDA [1]: 200 µM

O=C(O)C1CN(CCCP(=O)(O)O)CCN1 (stereo not drawn) [CPP]
POTENCY RATING = minimum concentration required to provide total protection against neurotoxic effects of NMDA [1, 9]: 10 µM

Clc1cccc(Cl)c1N=C1NCCN1 [Clonidine]
ED50 ([2]; Rattus norvegicus, Neuron, sc): 0.044 mg/kg

CN1CCN(C2=Nc3cc(Cl)ccc3Nc3ccccc32)CC1 [Clozapine]
ED50 ([2]; Rattus norvegicus, Neuron, sc): 2.8 mg/kg

N[C@H](CCCP(=O)(O)O)C(=O)O [D-AP5, D-2-amino-5-phosphonopentanoic acid]
POTENCY RATING = minimum concentration required to provide total protection against neurotoxic effects of NMDA [1, 9]: 25 µM

O=[N+]([O-])c1cc2nc(O)c(O)nc2cc1[N+](=O)[O-] [DNQX]
POTENCY RATING = minimum concentration required to provide total protection against neurotoxic effects of NMDA [1, 9]: 100 µM

COc1cc(CC(C)N)c(OC)cc1Br (stereo not drawn) [DOB]
ED50 [2, 10]: 0.36 mg/kg, ip

COc1cc(CC(C)N)c(OC)cc1I (stereo not drawn) [DOI]
ED50 [2, 10]: 1.05 mg/kg, ip

COc1ccc2c(c1)[C@]13CCCC[C@@H]1[C@H](C2)N(C)CC3 [Dextromethorphan]
POTENCY RATING = minimum concentration required to provide total protection against neurotoxic effects of NMDA [1, 9]: 25 µM

CN1C(=O)CN=C(c2ccccc2)c2cc(Cl)ccc21 [Diazepam]
ED50 ([2]; Rattus norvegicus, Neuron, sc): 1 mg/kg

OC(CN1CCC(Cc2ccc(F)cc2)CC1)c1ccc(Cl)cc1 (stereo not drawn) [Eliprodil]
neurotoxic (vacuole) reaction in PC/RS cortex, drug by itself ([3]; female, Sprague Dawley, 4 h): neither SKF (+)10,047 by itself, nor eliprodil by itself, caused a vacuole reaction | neurotoxic reaction in the PC/RS cortex at the highest dose tested [3]: did not cause a neurotoxic reaction | neurotoxic (vacuole) reaction in PC/RS cortex, drug by itself [3]: did not cause this neurotoxic reaction | NMDA antagonist properties in the chick retina assay [1]: definite NMDA antagonist properties | POTENCY RATING = minimum concentration required to provide total protection against neurotoxic effects of NMDA [1]: 30 µM | nearly a lethal dose (highest dose tested) ([4]; rats): 100 mg/kg/ip | binding at sigma receptors [5]: strong binding activity at sigma receptors

CN1CCN(C2=Nc3cc(F)ccc3Cc3ccccc32)CC1 [Fluperlapine]
ED50 ([2]; Rattus norvegicus, Neuron, sc): 2.4 mg/kg

N=C(N)N/N=C/c1c(Cl)cccc1Cl [Guanabenz]
ED50 ([2]; Rattus norvegicus, Neuron, sc): 0.21 mg/kg

O=C(CCCN1CCC(O)(c2ccc(Cl)cc2)CC1)c1ccc(F)cc1 [Haloperidiol]
ED50 ([2]; Rattus norvegicus, Neuron, sc): 5.1 mg/kg

CC(C(O)c1ccc(O)cc1)N1CCC(Cc2ccccc2)CC1 (stereo not drawn) [Ifenprodil]
POTENCY RATING = minimum concentration required to provide total protection against neurotoxic effects of NMDA [1]: 50 µM

CCN(CC)C(=O)N[C@H]1C=C2c3cccc4[nH]cc(c34)C[C@H]2N(C)C1 [Lisuride]
blocking of MK-801 neurotoxicity / vacuole formation [2]: block MK-801 toxicity

CC(Oc1c(Cl)cccc1Cl)C1=NCCN1 (stereo not drawn) [Lofexidine]
ED50 ([2]; Rattus norvegicus, Neuron, sc): 0.38 mg/kg

C[C@]12N[C@H](Cc3ccccc31)c1ccccc12 [MK-801, (+)-5-methyl-10,11-dihydro-5H-di[a,d]-cyclohepten-5,10-imine]
POTENCY RATING = minimum concentration required to provide total protection against neurotoxic effects of NMDA [1]: […] | neurotoxic reaction induced by MK-801 ([2]; MK-801 0.5 mg/kg sc, all treated rats): fully developed neurotoxic reaction

CN[C@H](CC(=O)O)C(=O)O [NMDA, n-methyl-D-aspartate]
pituitary secretion of reproductive hormones (LH) ([6]; NMDA subcutaneously or intravenously, rodents): causing the pituitary gland to secrete into the blood certain reproductive hormones such as luteinizing hormone | damage to the reproductive regulatory (NMDA receptor) system [6]: permanently damage and inactivate this reproductive regulatory system

Cc1cc2c(s1)Nc1ccccc1N=C2N1CCN(C)CC1 [Olanzapine]
ED50 ([2]; Rattus norvegicus, Neuron, sc): 0.6 mg/kg

CCCC(C)C1(CC)C(=O)NC(=O)NC1=O (stereo not drawn) [Pentobarbital]
ED50 ([2]; Rattus norvegicus, Neuron, sc): 13.1 mg/kg

OC(CCN1CCCC1)(c1ccccc1)C1CCCCC1 (stereo not drawn) [Procyclidine]
POTENCY RATING = minimum concentration required to provide total protection against neurotoxic effects of NMDA [1, 9]: 15 µM

C[C@@H]1CN(CCCn2c3ccccc3c3ccccc32)C[C@H](C)N1 [Rimcazole]
ED50 ([2]; Rattus norvegicus, Neuron, sc): 17.8 mg/kg

C=CCN1CC[C@]2(C)c3cc(O)ccc3C[C@H]1[C@H]2C [SKF (+)10,047]
neurotoxic (vacuole) reaction in PC/RS cortex, drug by itself ([4]; adult female rats, ip, sacrificed four hours after treatment): neither SKF (+)10,047 by itself, nor eliprodil by itself, caused a vacuole reaction; also recorded: neither SKF (+)10,047 nor ibogaine by itself caused vacuoles

CN1[C@@H]2C[C@@H](OC(=O)[C@H](CO)c3ccccc3)C[C@H]1[C@@H]1O[C@@H]12 [Scopolamine]
ED50 ([2]; Rattus norvegicus, Neuron, sc): 0.13 mg/kg

C=CCC1(C(C)CCC)C(=O)NC(=O)NC1=O (stereo not drawn) [Secobarbital]
ED50 ([2]; Rattus norvegicus, Neuron, sc): 15.3 mg/kg

CSc1ccc2c(c1)N(CCC1CCCCN1C)c1ccccc1S2 (stereo not drawn) [Thioridazine]
ED50 ([2]; Rattus norvegicus, Neuron, sc): 55.3 mg/kg

CCNC1(c2cccs2)CCCCC1=O (stereo not drawn) [Tiletamine]
POTENCY RATING = minimum concentration required to provide total protection against neurotoxic effects of NMDA [1, 9]: 5 µM | pathological changes in cerebral cortex / corticolimbic regions of adult rats [7]: cause pathological changes in the cerebral cortex of adult rats

OC(CCN1CCCCC1)(c1ccccc1)C1CCCCC1 (stereo not drawn) [Trihexyphenidyl]
binding at sigma receptors [5]: strong binding affinity not only to muscarinic receptors, but also to sigma receptors | ED50 ([2]; Rattus norvegicus, Neuron, sc): 2.14 mg/kg

N[C@@H](CCC(=O)O)C(=O)O [glutamate]
damage to the reproductive regulatory (NMDA receptor) system [6]: permanently damage and inactivate this reproductive regulatory system

FC(F)(F)C(Cl)Br (stereo not drawn) [halothane]
blocking of MK-801 neurotoxicity / vacuole formation [2]: effectively block vacuole formation

FC(F)OC(Cl)C(F)(F)F (stereo not drawn) [isoflurane]
blocking of MK-801 neurotoxicity / vacuole formation [2]: effectively block vacuole formation

Clc1cc(I)cc(Cl)c1NC1=NCCN1 [p-Iodoclonidine]
ED50 [2, 10]: 1.3 mg/kg, ip

CC[C@@H]1C(=O)OC[C@@H]1Cc1cncn1C [pilocarpine]
brain damage by pilocarpine by itself [8]: does not and cannot cause the type of damage observed in these tests

CC(C)c1cccc(C(C)C)c1O [propofol]
blocking of MK-801 neurotoxicity / vacuole formation [2]: effectively block vacuole formation

Ibogaine
NMDA antagonist properties in the chick retina assay [1]: definite NMDA antagonist properties | POTENCY RATING = minimum concentration required to provide total protection against neurotoxic effects of NMDA [1, 9]: 15 µM | binding at sigma receptors [5]: strong binding affinity at sigma receptors
